Laboratory results taken from US20160040240A1, “CACNA1C ALLELE AND TREATMENT OF MOOD DISORDERS” (THE UNIVERSITY OF CHICAGO, priority 2014, published 2016).

Columns and labels:
patient with TS Type 2 = test: Case report: treatment of a patient with Timothy Syndrome type 2 and bipolar disorder; assay type: in vivo, human
Excerpt: The patient is a person with TS Type 2 (see below) diagnosed in childhood. The patient was referred for research evaluation after diagnosis of BD by one of us (FO). This was confirmed by interview with the patient and their parent, using the Diagnostic Interview for Genetic Studies (DIGS), version 3.0.
Ten months after starting the medication, they were referred to a neurologist, who found depression and prescribed citalopram.
They were restarted on their antidepressant and has been stable for the three years of observation since then. We note that this is not a typical course of BD, and that further observation will be needed to fully define their course.

[1] = verapamil: particularly in males; cited from earlier work
[2] = clinical use; cited from earlier work
[3] = system: L-type channel of the Cav1.2 protein; conditions: cited from earlier work
[4] = system: neuronal induced pluripotent stem cells (iPSCs) derived from TS patients; conditions: TS patient iPSC-derived neuronal cells; cited from earlier work
[5] = verapamil at 250 mg/d, TS patient

With `COc1ccc(CCN(C)CCCC(C#N)(c2ccc(OC)c(OC)c2)C(C)C)cc1OC` (stereo not drawn) [verapamil] the QT interval (patient with TS Type 2; [5]) was “no change”, the “episodes of atrial fibrillation” value (patient with TS Type 2; [5]) was “continued to have some episodes” and the “number of ventricular fibrillation episodes” value (patient with TS Type 2; [5]) was “marked decrease”.

For `COC(=O)C1=C(C)NC(C)=C(C(=O)OCCN(C)Cc2ccccc2)C1c1cccc([N+](=O)[O-])c1` (stereo not drawn) [Nicardipine], the “penetration into the brain / crossing of the blood-brain barrier” value [1] is given as “satisfactorily crosses” and the common side effects [2] is given as “headache, peripheral edema, dizziness, flushing, asthenia, angina, hypotension, nausea/vomiting, tachycardia, and palpitations”.

In the case of `[Li]` [Lithium], the tolerability (patient with TS Type 2; given for mood stabilization, complaints of increased lethargy and irritability) is reported as “not well tolerated”.

In the case of `CC[C@H](CO)Nc1nc(NCc2ccccc2)c2ncn(C(C)C)c2n1` [roscovitine], the “inactivation of the L-type channel” value [3] is given as “enhanced (normalized)”, the “reduction in the proportion of TH-positive neurons” value [4] is given as 68% and the “reversal of excess expression of TH” value [4] is given as “succeeds in reversing”.
